Values quoted from earlier work, collected in patent US20040039052A1, “Urinary incontinence therapy” (priority 1997, published 2004).

Experiments:
bladder afferents = conditions: rats; intravesicular 10-100 μmol; cited from earlier work
[1] = system: patients with detrusor hyperreflexia (DH); conditions: intravesical instillation; cited from earlier work
[2] = system: vanilloid receptor-mediated release of tachykinins in the rat urinary bladder; conditions: rats with experimentally induced hypertrophy; cited from earlier work

## COc1cc(CNC(=O)CCCC/C=C/C(C)C)ccc1O [CAP, capsaicin, reference compound]
Bladder afferents
  desensitization of bladder afferents: long-lasting desensitization of bladder afferents
[1]
  period after treatment when symptoms deteriorate: 2 to 4 days
  tolerability upon instillation: intense burning and pain in the lower abdomen upon instillation
[2]
  reducing symptoms in rats having an experimentally induced hypertrophy: effective in reducing symptoms
